Measured values reported in patent US5440016A, “Peptides of the formula (KFmoc) ZZZ and their uses” (priority 1993, dated 1995).
Square brackets hold non-standard residues; d marks the D form. Peptide text beside a SMILES is read from it.

Legend:
[1] = test system: Streptococcus sanguis ATCC 10556; settings: for IC50 (μg/ml) against S. sanguis: Tables 22-23; for IC50 against S. sanguis: Tables 11-13, lower parts (unnatural amino acids)
P. aeruginosa ATCC 27853 = test: Antimicrobial assay, P. aeruginosa; settings: Tables 22-23
Description: (§1) Escherichia coli ATCC 25922 and P. aeruginosa ATCC 27853 were used as Gram-negative (-) and Staphylococcus aureus ATCC 29213 as Gram-positive (+) bacteria. Bacteria were grown overnight at 37° C. in Mueller-Hinton (MH) broth. This culture was reinoculated and incubated at 37° C. to reach the exponential phase of bacteria growth, i.e., a final bacterial suspension containing 10^5 to 5×10^5 colony-forming units (CFU)/ml. The concentration of cells was established by plating 100 μl of different dilutions of the culture solution (e.g., 10^-2, 10^-3 and 10^-4) onto solid agar plates.
(§2) Following an overnight incubation at 37° C., the CFU thus formed were counted on each agar plate. In 96-well tissue culture plates, as control blanks, eight wells per plate contained only medium, while as a positive growth control, eight other wells contained medium plus cells.
(§3) The plates were incubated overnight at 37° C., and the optical density (OD) determined at 620 nm after different times of incubation.

[2] = test system: Staphylococcus aureus ATCC 29213; settings: for IC50 (μg/ml) against S. aureus: Tables 22-23; for IC50 against S. aureus: Tables 7-9, lower parts (unnatural amino acids)
Description: as §1, §2, §3

[3] = test system: Candida albicans ATCC 10231; settings: for IC50 (μg/ml) against C. albicans: Tables 22-23; for IC50 against C. albicans: Tables 15-17, lower parts (unnatural amino acids)
[4] = test system: Escherichia coli ATCC 25922; settings: for IC50 (μg/ml) against E. coli: Tables 22-23; for IC50 against E. coli: Tables 3-5, lower parts (unnatural amino acids)
Description: as §1, §2, §3

[5] = test system: Human red blood cells (RBCs); test: Hemolytic activity; format: cell-based; settings: for % hemolysis at 100 μg/ml: Tables 22-23; for HD50 (concentration necessary to lyse 50% of the cells): Tables 18-21

| Molecule | IC50 (μg/ml) against S. sanguis [1] | IC50 (μg/ml) against P. aeruginosa (P. aeruginosa ATCC 27853) | IC50 (μg/ml) against S. aureus [2] | IC50 (μg/ml) against C. albicans [3] | IC50 (μg/ml) against E. coli [4] | % hemolysis at 100 μg/ml [5] | IC50 against S. sanguis [1] | IC50 against S. aureus [2] | IC50 against C. albicans [3] | IC50 against E. coli [4] | HD50 (concentration necessary to lyse 50% of the cells) [5] |
| --- | --- | --- | --- | --- | --- | --- | --- | --- | --- | --- | --- |
| CC(=O)N[C@@H](CCCNC(=N)N)C(=O)N[C@@H](CCCNC(=N)N)C(=O)N[C@@H](Cc1c[nH]c2ccccc12)C(=O)N[C@@H](Cc1c[nH]c2ccccc12)C(=O)N[C@@H](CS)C(=O)N[C@@H](CS)C(N)=O [Ac-RRWWCC-NH2] (Ac-RRWWCC-NH2) | 92 to 94 µg/mL | 86 to 88 µg/mL | 47 to 63 µg/mL | 162 to 166 µg/mL | 54 to 68 µg/mL | 9.5% |  |  |  |  |  |
| CC(=O)N[C@H](CCCNC(=N)N)C(=O)N[C@H](CCCNC(=N)N)C(=O)N[C@H](Cc1c[nH]c2ccccc12)C(=O)N[C@H](Cc1c[nH]c2ccccc12)C(=O)N[C@H](CS)C(=O)N[C@H](CCCNC(=N)N)C(N)=O [Ac-rrwwcr-NH2] (Ac-[dR][dR][dW][dW][dC][dR]-NH2) | 14 to 15 µg/mL | 28 to 29 µg/mL | 9 to 13 µg/mL | 68 to 78 µg/mL | 10 to 11 µg/mL | 2.0% |  |  |  |  |  |
| CC(=O)N[C@H](CCCNC(=N)N)C(=O)N[C@H](CCCNC(=N)N)C(=O)N[C@H](Cc1c[nH]c2ccccc12)C(=O)N[C@H](Cc1c[nH]c2ccccc12)C(=O)N[C@H](CS)C(=O)N[C@@H](C(N)=O)C(C)C [Ac-rrwwcv-NH2] (Ac-[dR][dR][dW][dW][dC][dV]-NH2) | 7 to 8 µg/mL | 58 to 88 µg/mL | 16 to 19 µg/mL | 107 to 119 µg/mL | 9 to 10 µg/mL | 10.0% |  |  |  |  |  |
| (KFmoc)ci(Hyp)-NH2 |  |  |  |  |  |  | 8 μg/m | 8 μg/m | 205 μg/m | 52 μg/m | 39 µg/mL |
| (KFmoc)ci(KCBZ)-NH2 |  |  |  |  |  |  | 3 μg/m | 5 μg/m | 78 μg/m | 15 μg/m | 53 µg/mL |
| (KFmoc)ci(dOrn)-NH2 |  |  |  |  |  |  | 2 μg/m | 4 μg/m | 121 μg/m | 20 μg/m | 77 µg/mL |
| Ac-RRWWCA-NH2 [Ac-RRWWCA-NH2] | 60 to 70 µg/mL | 97 to 98 µg/mL | 35 to 40 µg/mL | 193 to 210 µg/mL | 21 to 23 µg/mL | 2.2% |  |  |  |  |  |
| Ac-RRWWCD-NH2 [Ac-RRWWCD-NH2] | > 500 µg/mL | > 500 µg/mL | > 125 µg/mL | > 1000 µg/mL | > 125 µg/mL | 0.3% |  |  |  |  |  |
| Ac-RRWWCE-NH2 [Ac-RRWWCE-NH2] | > 500 µg/mL | 149 µg/mL | > 125 µg/mL | 842 to 874 µg/mL | > 125 µg/mL | 0.0% |  |  |  |  |  |
| Ac-RRWWCF-NH2 [Ac-RRWWCF-NH2] | 14 to 22 µg/mL | 42 to 45 µg/mL | 10 to 14 µg/mL | 70 to 97 µg/mL | 20 to 21 µg/mL | 3.3% |  |  |  |  |  |
| Ac-RRWWCL-NH2 [Ac-RRWWCL-NH2] | 18 to 21 µg/mL | 46 to 54 µg/mL |  | 65 to 95 µg/mL | 19 to 22 µg/mL | 5.0% |  |  |  |  |  |
| MagaininII-NH2 [reference compound] | 143 to 235 µg/mL | 150 to 200 µg/mL | 32 to 64 µg/mL | 41 to 42 µg/mL | 72 to 98 µg/mL |  |  |  |  |  |  |
